The term inhibition denotes the drop in the measured response relative to a control, in per cent.

The data set concerns the target T1, CYP2B6 (Homo sapiens, UniProt P20813).
T1 construct: tissue Corning or Xenotech; host or cells: human liver microsomes
T1 sequence (P20813 1-491): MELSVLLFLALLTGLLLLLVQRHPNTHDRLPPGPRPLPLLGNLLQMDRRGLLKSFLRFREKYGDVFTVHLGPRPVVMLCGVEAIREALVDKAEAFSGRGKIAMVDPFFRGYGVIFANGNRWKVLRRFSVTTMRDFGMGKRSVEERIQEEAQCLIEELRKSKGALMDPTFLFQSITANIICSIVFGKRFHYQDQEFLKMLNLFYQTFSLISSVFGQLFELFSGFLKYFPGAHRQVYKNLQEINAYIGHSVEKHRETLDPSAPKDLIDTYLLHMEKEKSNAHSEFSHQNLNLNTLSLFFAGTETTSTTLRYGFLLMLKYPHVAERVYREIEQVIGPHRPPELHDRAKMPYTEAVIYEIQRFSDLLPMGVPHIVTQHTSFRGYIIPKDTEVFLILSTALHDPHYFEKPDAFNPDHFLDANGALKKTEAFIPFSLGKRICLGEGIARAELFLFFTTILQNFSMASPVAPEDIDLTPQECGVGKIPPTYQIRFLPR
The experiment in a line: CYP450 inhibition in human liver microsomes, CYP2B6. It counts as in vitro ADME. To be noted: pH 7.4, read-out: % CYP inhibition @ 10 µM 2B6. The text has this: According to standard methods in the field for the study of cytochrome P450 enzyme systems, such as the method described in Kerns, Edward H. and Di Li et al., Drug-like Properties: Concepts, Structure Design and Methods: from ADME to Toxicity Optimization (2008), San Diego, Academic Press, and Lin, Tong et al., In Vitro Assessment of Cytochrome P450 Inhibition: Strategies for Increasing LC/MS-Based Assay Throughput Using a One-Point IC50 Method and Multiplexing High-Performance Liquid Chromatography (J. Pharm. Sci. 2007, 96 (9), 2485). The inhibitory effect of the disclosed compounds on the cytochrome P450 enzyme system was similarly examined below.
Human liver microsomes were purchased from Corning or Xenotech. The test compounds were evaluated by detecting the metabolism of substrates for different Cyp450 isoforms by human liver microsomes.
0.1 M potassium phosphate buffer (K-buffer, pH 7.4) was pre-warmed.
100 mM K-buffer was prepared by mixing 9.5 mL of stock solution A (1 M potassium dihydrogen phosphate, prepared by dissolving 136.5 g of potassium dihydrogen phosphate in 1 L of Milli-Q water) with 40.5 mL of stock solution B (1 M potassium hydrogen phosphate, prepared by dissolving 174.2 g of potassium hydrogen phosphate in 1 L of Milli-Q water). The total volume was adjusted to 500 mL with Milli-Q water, and the buffer was titrated to pH 7.4 using KOH or H3PO4.
Test compound solution and specific inhibitor solution (400× dilution) were prepared in a 96-well plate. For the test compound, 8 µL of 10 mM test compound was transferred into 12 µL of ACN. For specific inhibitors of CYP1A2, CYP2C9, and CYP2D6: 12 µL of 1 mM α-naphthoflavone, 10 µL of 40 mM sulfaphenazole, 10 µL of 10 mM quinidine, and 8 µL of DMSO were mixed. For specific inhibitors of CYP3A4, CYP2B6, CYP2C8, and CYP2C19: 8 µL of DMSO stock solution was added to 12 µL of ACN.
A 4× diluted NADPH solution was prepared by dissolving 66.7 mg of NADPH in 10 mL of 0.1 M K-buffer (pH 7.4). […]
On to `CC1(n2c(-c3ccc(NC(=O)C(=O)Nc4ccc(N5CCC6(CCOC6)CC5)cc4)cc3)cc3cc(F)c(-c4nnn[nH]4)cc32)CCC1` [Example 68], for which the inhibition at 10 min, 10 µM stood at 7.06%.

`O=C(Nc1ccc(-c2cc3cc(F)c(-c4nnn[nH]4)cc3n2C2CCC2)cc1)C(=O)Nc1ccc(N2CCC(CO)CC2)cc1` [Example 23]: the inhibition at 10 min, 10 µM was 1.32%.

As for `O=C(Nc1ccc(-c2cc3cc(F)c(-c4nnn[nH]4)cc3n2C2CCC2)cc1)C(=O)Nc1ccc(N2CCC3(CCOC3)CC2)cc1` [Example 67], the inhibition at 10 min, 10 µM amounted to 15.3%.

The values above are taken from patent publication EP4741383A1, “COMPOUND AND USE THEREOF AS ANTI-CANCER DRUG” (Tyligand Bioscience (Shanghai) Limited, priority 2023, dated 2025).
